target: T1, Human Recombinant Matriptase 2 (Homo sapiens, UniProt Q8IU80); experiment: Matriptase 2 fluorescence based inhibition assay, Method A (100 mM TRIS pH 9, 1 mg/mL BSA); format: biochemical; conditions: 1 uM; Assay Used A; read-out: Mar-2 % inhibition at 1 uM
T1 construct: purchased Enzo Life Sciences (an in-house preparation was also used) ALX-201-752-1
T1 sequence (Q8IU80 1-811): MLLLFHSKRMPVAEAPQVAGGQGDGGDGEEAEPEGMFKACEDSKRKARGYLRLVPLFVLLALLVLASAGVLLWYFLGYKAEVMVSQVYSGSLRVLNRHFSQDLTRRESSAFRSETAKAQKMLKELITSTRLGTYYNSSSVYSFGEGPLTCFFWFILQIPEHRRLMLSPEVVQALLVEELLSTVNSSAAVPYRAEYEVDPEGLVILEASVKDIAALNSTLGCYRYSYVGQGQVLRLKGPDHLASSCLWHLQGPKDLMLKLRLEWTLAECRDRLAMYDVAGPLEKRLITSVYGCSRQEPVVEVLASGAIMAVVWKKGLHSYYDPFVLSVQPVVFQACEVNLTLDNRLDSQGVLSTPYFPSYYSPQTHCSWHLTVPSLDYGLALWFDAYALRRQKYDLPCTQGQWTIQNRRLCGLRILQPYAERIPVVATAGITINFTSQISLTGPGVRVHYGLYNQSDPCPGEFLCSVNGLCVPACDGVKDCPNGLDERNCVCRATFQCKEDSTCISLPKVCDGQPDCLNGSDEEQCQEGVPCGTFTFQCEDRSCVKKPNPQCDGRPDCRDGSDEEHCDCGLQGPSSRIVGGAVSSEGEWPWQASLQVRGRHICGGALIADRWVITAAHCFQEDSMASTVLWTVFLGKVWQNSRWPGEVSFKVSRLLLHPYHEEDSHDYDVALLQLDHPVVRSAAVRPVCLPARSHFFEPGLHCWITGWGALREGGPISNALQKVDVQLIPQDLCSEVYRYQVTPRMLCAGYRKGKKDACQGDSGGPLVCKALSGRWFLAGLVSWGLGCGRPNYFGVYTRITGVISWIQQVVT
Protocol: Test compounds were evaluated for their potential to inhibit Human Recombinant Matriptase 2 (in-house and commercial protein from Enzo Life Sciences—cat log -ALX-201-752-1) using fluorescence based assay. The concentration of Recombinant Matriptase 2 and the substrate used in the assay was: 7 nM (commercial) and 15 nM (Inhouse Matriptase 2) and 100 μM (Boc-Gln-Ala-Arg-7-amido-4-methyl coumarin hydrobromide—Cat log: B4153-Sigma) respectively. The assay buffer used was 100 mM TRIS pH 9, 1 mg/mL BSA. The assay was performed using 384 well black flat bottom plate from grenier (Cat log: 781076) at 25° C. The enzyme and compound was preincubated for 30 mins, plate was read 60 mins after substrate addition at wavelength Ex: 360/Em: 480 nm. The final assay volume was 20 μl. Stock solution of compounds were initially prepared in DMSO and appropriate dilutions were made for screening and IC50 determination (final DMSO conc in the assay was 1%). All the measurements were carried out using the Spectramax M5, Molecular devices. The compounds were screened at 1 and 10 μM concentration and IC50 was determined for the interested compounds.
To determine IC50 values, dose response curves were generated by plotting percentage inhibition as a function of inhibitor concentration and the data was fitted to sigmoidal non-linear regression equation (variable slope) using Graph Pad prism software V7.

inhibition at 1 µM [%]	SMILES
0 to 25	N=C(N)c1ccc2cc(C(=O)Nc3ccc(N)nc3)n(Cc3ccc(C(F)(F)F)cc3)c2c1 [Compound I-1, N-(6-aminopyridin-3-yl)-6-carbamimidoyl-1-(4-(trifluoromethyl)benzyl)-1H-indole-2-carboxamide]
25 to 50	N=C(N)c1ccc2cc(C(=O)N[C@H]3CC[C@H](N)CC3)n(Cc3ccc(C(F)(F)F)cc3)c2c1 [Compound I-4]
25 to 50	N=C(N)c1ccc2cc(C(=O)NC3CCNCC3)n(Cc3ccc(C(F)(F)F)cc3)c2c1 [Compound I-5]
25 to 50	N=C(N)c1ccc2cc(C(=O)NC3CCN(CCCN)CC3)n(Cc3ccc(C(F)(F)F)cc3)c2c1 [Compound I-6, N-(1-(3-Aminopropyl)piperidin-4-yl)-6-carbamimidoyl-1-(4-(trifluoromethyl)benzyl)-1H indole-2-carboxamide]
25 to 50	N=C(N)c1ccc2cc(C(=O)NC3CCN(C(=O)CCN)CC3)n(Cc3ccc(C(F)(F)F)cc3)c2c1 [Compound I-8, N-(1-(3-aminopropanoyl)piperidin-4-yl)-6-carbamimidoyl-1-(4-(trifluoromethyl)benzyl)-1H-indole-2-carboxamide]

target: T1, Human Recombinant Matriptase 2; experiment: Matriptase 2 fluorescence based inhibition assay, Method B (50 mM TRIS pH 7.5, 150 mM NaCl, 0.01% gelatin); format: biochemical; conditions: 1 uM compound; Assay Used = B (Method B); read-out: Mar-2 % inhibition at 1 uM
Outline: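 Commercial (7 nM) or in-house (15 nM) enzyme preincubated 30 min with compound at 25° C, then 100 μM Boc-Gln-Ala-Arg-AMC added; fluorescence (Ex 360/Em 480 nm) read at 60 min. 1% DMSO final. IC50 from variable-slope sigmoidal fit of % inhibition.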

inhibition at 1 µM [%]	SMILES
50 to 75	N=C(N)c1ccc2cc(C(=O)N[C@H]3CC[C@H](N)CC3)n(Cc3cc(C(N)=O)cc4ccccc34)c2c1 [Compound I-796, N-((1r, 4r)-4-aminocyclohexyl)-6-carbamimidoyl-1-((3-carbamoylnaphthalen-1-yl)methyl)-1H-indole-2-carboxamide]

same assay, conditions: compound at 1 uM; Assay Used: B; read-out: Mar-2 % inhibition at 1 uM

SMILES	inhibition at 1 µM [%]
CN(C)C(=O)c1ccc(Cn2c(C(=O)N[C@H]3CC[C@H](N)CC3)cc3ccc(C(=N)N)cc32)c2ccccc12 [Compound I-798]	50 to 75
CNCCCOc1ccc2c(Cn3c(C(=O)O)cc4ccc(C(=N)N)cc43)cccc2c1 [Compound I-801, 6-carbamimidoyl-1-((6-(3-(methylamino)propoxy)naphthalen-1-yl)methyl)-1H-indole-2-carboxylic Acid]	50 to 75
N=C(N)c1ccc2cc(-c3nnn[nH]3)n(Cc3cccc4ccccc34)c2c1 [Compound I-803, 1-(naphthalen-1-ylmethyl)-2-(1H-tetrazol-5-yl)-1H-indole-6-carboximidamide]	75 to 100
CN(C)CCCOc1ccc2c(Cn3c(C(=O)N[C@H]4CC[C@H](N)CC4)cc4ccc(C(=N)N)cc43)cccc2c1 [Compound I-804, N-((1r,4r)-4-aminocyclohexyl)-6-carbamimidoyl-1-((6-(3-(dimethylamino)propoxy)naphthalen-1-yl)methyl)-1H-indole-2-carboxamide]	75 to 100
CN(C)CCCOc1ccc2c(Cn3c(C(=O)O)cc4ccc(C(=N)N)cc43)cccc2c1 [Compound I-808]	50 to 75
N=C(N)c1ccc2cc(C(=O)N[C@H]3CC[C@H](N)CC3)n(Cc3cccc4sc(CO)cc34)c2c1 [Compound I-813, N-((1r,4r)-4-aminocyclohexyl)-6-carbamimidoyl-1-((2-(hydroxymethyl)benzo[b]thiophen-4-yl)methyl)-1H-indole-2-carboxamide]	50 to 75
N=C(N)c1ccc2cc(C(=O)N[C@H]3CC[C@H](N)CC3)n(Cc3cccc4c3CCCC4)c2c1 [Compound I-814]	25 to 50
N=C(N)c1ccc2cc(C(=O)N[C@H]3CC[C@H](N)CC3)n(Cc3cccc4sc(C(=O)O)cc34)c2c1 [Compound I-815, 4-((2-(((1r,4r)-4-aminocyclohexyl)carbamoyl)-6-carbamimidoyl-1H-indol-1-yl)methyl) benzo[b]thiophene-2-carboxylic Acid]	50 to 75
N=C(N)c1ccc2cc(C(=O)N[C@H]3CC[C@H](N)CC3)n(Cc3cccc4ccsc34)c2c1 [Compound I-818]	50 to 75
Cc1cccc2sc(Cn3c(C(=O)N[C@H]4CC[C@H](N)CC4)cc4ccc(C(=N)N)cc43)cc12 [Compound I-820]	25 to 50
N=C(N)c1ccc2cc(C(=O)O)n(Cc3cccc4cc(O)ccc34)c2c1 [Compound I-821]	75 to 100
COC(=O)c1cc2c(Cn3c(C(=O)N[C@H]4CC[C@H](N)CC4)cc4ccc(C(=N)N)cc43)cccc2s1 [Compound I-822]	50 to 75
N=C(N)c1ccc2cc(C(=O)N[C@H]3CC[C@H](N)CC3)n(Cc3cccc4sccc34)c2c1 [Compound I-823]	50 to 75
N=C(N)c1ccc2cc(C(=O)NCCc3c[nH]c4ccc(O)cc34)n(Cc3cc(Oc4ncccn4)cc4ccccc34)c2c1 [Compound I-826]	25 to 50

Further lines, results first:

inhibition at 1 µM [%]	SMILES
75 to 100	COc1cccc2c(Cn3c(C(=O)N[C@H]4CC[C@H](N)CC4)cc4ccc(C(=N)N)cc43)cccc12 [Compound I-797]
0 to 25	COc1ccc2ccccc2c1Cn1c(C(=O)N[C@H]2CC[C@H](N)CC2)cc2ccc(C(=N)N)cc21 [Compound I-799]
25 to 50	N=C(N)c1ccc2cc(C(=O)N[C@H]3CC[C@H](N)CC3)n(Cc3cc(CO)cc4ccccc34)c2c1 [Compound I-800, N-((1r,4r)-4-aminocyclohexyl)-6-carbamimidoyl-1-((3-(hydroxymethyl)naphthalen-1-yl)methyl)-1H-indole-2-carboxamide]
0 to 25	C[C@@H](c1cccc2ccccc12)n1c(C(=O)N[C@H]2CC[C@H](N)CC2)cc2ccc(/C(N)=N/O)cc21 [Compound I-802]
0 to 25	C[C@@H](c1cccc2ccccc12)n1c(C(=O)N[C@H]2CC[C@H](N)CC2)cc2ccc(C(=N)N)cc21 [Compound I-805]
50 to 75	N=C(N)c1ccc2cc(C(=O)N[C@H]3CC[C@H](N)CC3)n(Cc3cc(C(=O)O)cc4ccccc34)c2c1 [Compound I-806]
25 to 50	N/C(=N\O)c1ccc2cc(C(=O)NC3CCNCC3)n(Cc3cccc4ccccc34)c2c1 [Compound I-809]
25 to 50	N/C(=N\O)c1ccc2cc(C(=O)O[C@H]3CC[C@H](N)CC3)n(Cc3cccc4ccccc34)c2c1 [Compound I-810, (1r,4r)-4-aminocyclohexyl 6-((Z)—N′-hydroxycarbamimidoyl)-1-(naphthalen-1-ylmethyl)-1H-indole-2-carboxylate]
25 to 50	N=C(N)c1ccc2cc(C(=O)OC3CCCCC3)n(Cc3cccc4ccccc34)c2c1 [Compound I-811]
75 to 100	CCOC(=O)c1cc(Cn2c(C(=O)N[C@H]3CC[C@H](N)CC3)cc3ccc(C(=N)N)cc32)c2ccccc2c1 [Compound I-812]
75 to 100	N=C(N)c1ccc2cc(C(=O)NC3CCNC[C@@H]3F)n(Cc3cccc4ccccc34)c2c1 (stereo partly drawn) [Compound I-816]
0 to 25	N=C(N)c1ccc2cc(C(=O)N[C@H]3CC[C@H](N)CC3)n(CCCc3cccc4ccccc34)c2c1 [Compound I-817]
75 to 100	N=C(N)c1ccc2cc(C(=O)N[C@H]3CC[C@H](N)CC3)n(Cc3cc(Br)cc4ccccc34)c2c1 [Compound I-819]
75 to 100	N=C(N)c1ccc2cc(C(=O)N[C@H]3CC[C@H](N)CC3)n(Cc3ccc(CO)c4ccccc34)c2c1 [Compound I-824]
75 to 100	COC(=O)c1ccc(Cn2c(C(=O)N[C@H]3CC[C@H](N)CC3)cc3ccc(C(=N)N)cc32)c2ccccc12 [Compound I-825]
25 to 50	N=C(NN)c1ccc2cc(C(=O)N[C@H]3CC[C@H](N)CC3)n(Cc3cccc4ccccc34)c2c1 [Compound I-827, N-((1r,4r)-4-aminocyclohexyl)-6-(hydrazineyl(imino)methyl)-1-(naphthalen-1-ylmethyl)-1H-indole-2-carboxamide]

— patent publication US12428415B2, “Matriptase 2 inhibitors and uses thereof” (Disc Medicine, Inc., priority 2018, dated 2025)
